This note sets out measurements from ChEMBL document CHEMBL1154798, “Aminocaprophenone- and pyrrolidine-type alkaloids from the leaves of Ficus septica” (J Nat Prod, 2009).

Assay [1] can be described thus: Cytotoxicity against human ACC-MESO1 cells after 48 hrs by WST8 colorimetric assay. The assay is classed as functional, cell-based. Particulars: ACC-MESO-1, 48 h. A general note: Formazan colour is commonly taken as a measure of viable cells.
Assay [2] deals with HeLa. Nature of the assay: Cytotoxicity against human HeLa cells after 48 hrs by WST8 colorimetric assay. The assay is classed as functional, cell-based.

A value given as a limit tells only on which side of the number the result lay.

A word on the IC50: it is the concentration needed to halve the response being measured. Low values mean inhibition by little substance, high ones a need for much substance. On to `COc1ccc(C(=O)CCCCCN(C)C)cc1O` [FICUSEPTAMINE B], for which the IC50 was 72 µM in assay [1] and 23 µM in assay [2].
`COc1cc(C(=O)CC2CCC[N+]2(C)C)ccc1O` (stereo unspecified) [FICUSEPTAMINE C]: the IC50 in assay [1] and in assay [2] was over 160 µM in each case.
Take `COc1ccc(C2=C(c3ccc(OC)c(OC)c3)CN3CCC[C@@H]3C2)cc1OC` [SEPTICINE]: the IC50 stood at 63 µM in assay [1] and 38 µM in assay [2].
Turning to `COc1cc(C(=O)CCCCCN(C)C)ccc1O` [FICUSEPTAMINE A], the IC50 in assay [1] is 160 µM; in assay [2] it was 57 µM.
Consider `COc1cc2c3c(c4cc(OC)c(OC)cc4c2cc1OC)CN1CCC[C@@H]1C3` [TYLOPHORINE], for which the IC50 in assay [1] was 12 µM; in assay [2], 3.1 µM.
As to `COc1cc(C(=O)CC2CCCN2C)ccc1O` (stereo unspecified) [PHYLLOSTERONE], the IC50 in assay [1] and in assay [2] was over 160 µM in each case.
With `COc1cc2c3c(c4ccc(OC)c(OC)c4c2cc1OC)[C@H](O)[C@@H]1CCC[N+]1([O-])C3` (stereo partly specified), the IC50 in assay [1] is 28 µM; in assay [2], 7.1 µM.
Consider `CC(=O)c1ccc(O)c(O[C@@H]2O[C@H](CO)[C@@H](O)[C@H](O)[C@H]2O)c1` [PUNGENIN], for which the IC50 in assay [1] and in assay [2] was over 160 µM in each case.
